What was measured:
suckling pig skin = test: Exfoliation on excised suckling pig skin (Franz cell), total protein of detached keratinocytes; conditions: 50 μL, 24 h, 32 °C
Method: <1> Formulation of cleaning solution (0.1% Triton X-100): 0.1 mL of Triton X-100 was weighed and dissolved in 100 mL of PBS to formulate 0.1% Triton X-100 solution. <2> Formulation of sodium hydroxide solution (12 M): 4.8 g of sodium hydroxide solid was weighed, and added with deionized water to make up to 10 mL, and formulate 12 M sodium hydroxide solution. <1> After being thawed and cleaned, pig skin was fixed between a supply chamber and a receiving chamber of Franz cell, with stratum corneum of the skin facing the supply chamber, and a dermal side facing the receiving chamber. Into the receiving chamber, 7.0 mL of a receiving liquid was added. After suckling pig skin was stretched and fixed well, into the receiving chamber, 1.5 mL of the receiving liquid (PBS) was added through a sample collector, and air was exhausted, so as to make the dermis of the skin be in close contact with the receiving liquid. <2> Samples (as shown in TABLE 24) were added to the skin surface in the supply chamber, where 50 μL of the samples were added to the surface of the pig skin (a PBS buffer solution was added to the surface of the control group as blank control). The samples were evenly spread radially from a central part of the skin towards an edge, and an exposed area of the samples was 3.14 cm^2. Each sample had three parallel replicates. […] Keratinocytes in the cleaning solution were precipitated, supernatant was discarded, and precipitate was re-suspended with 0.5 mL of deionized water. <2> Into the re-suspended liquid, 25 μL of a sodium hydroxide (12 M) solution was added, the keratinocytes were lysed for 30 min in a boiling water bath, and 25 μL of concentrated hydrochloric acid (12 M) was added to neutralize lysis solution. <3> The total protein content was detected according to instructions of a BCA protein assay kit. […] The total protein content in the lysis solution was directly proportional to the quantity of detached keratinocytes. […] GraphPad Prism was applied for plotting, and results were expressed as Mean±SD. Comparison between the groups was statistically analyzed using t-test. […]

CPD = test: DNA damage repair on UVB-irradiated 3D epidermal skin model, CPD immunohistochemistry; format: cell-based; conditions: Filtrate 5%, Lysate 5%, Filtrate + lysate 5%, Retinol 0.1%, Bifida ferment lysate 5%; for CPD Positive cell Rate (%): BC 0.00%, NC 72.14%, smaller values are better; for CPD fluorescence intensity, Down-regulation Rate: vs NC
Method: <1> According to test groups, models were transferred into 6-well plates (added with 0.9 mL of an EpiGrowth culture solution of corresponding groups in advance), and numbers of the test groups were marked on the 6-well plates.
<2> UVB irradiation (a radiation dosage was 600 mJ/cm^2) was performed on the groups requiring UVB irradiation according to the test groups (as shown in TABLE 40). After the irradiation, a sample working solution was evenly distributed on surfaces of the models, and continued to be incubated in a CO2 incubator (37° C., 5% CO2) for 24 h.
<3> After incubation was finished, test substances remaining on surfaces of the models were cleaned with sterile PBS, and residual liquid inside and outside the models was wiped off with a sterile cotton swab.
The models for detection were fixed using 4% paraformaldehyde. After 24 h of fixation, immunohistochemical detection was performed, photographs were taken under a microscope and observed, and pictures were collected and analyzed.
Inhibition rate/down-regulation rate (%)=(negative control group−sample)/negative control group×100%
GraphPad Prism was applied for plotting, and results were expressed as Mean±SD. Comparison between the groups was statistically analyzed using t-test. Statistical analysis was two-tailed. P<0.05 is considered to have a significant difference, and P<0.01 is considered to have an extremely significant difference.
(1) CPD: When a body is exposed to exogenous UV radiation, DNA damage may occur, and this damage may induce body aging. If such DNA damage is not repaired in time, symptoms such as aging of the body may occur.

[1] = system: 3D epidermal skin model (EpiKuits®); test: Epidermal atrophy on UVB-irradiated 3D epidermal skin model, tissue morphology H&E, sunburn cells; format: cell-based; conditions: Filtrate 5%, Lysate 5%, Filtrate + lysate 5%, Retinol 0.1%, Bifida ferment lysate 5%; for Sunburn cells: EpiKutis 3D epidermal model, UVB 600 mJ/cm^2, then 24 h, H&E, BC 0, NC 10, WY14643 50 μM
Method: [table] <1> According to test groups, models were transferred into 6-well plates (added with 0.9 mL of an EpiGrowth culture solution of corresponding groups in advance), and numbers of the test groups were marked on the 6-well plates. <2> UVB irradiation (a radiation dosage was 600 mJ/cm^2) was performed on the groups requiring UVB irradiation according to the test groups (as shown in TABLE 40). […] <3> After incubation was finished, test substances remaining on surfaces of the models were cleaned with sterile PBS, and residual liquid inside and outside the models was wiped off with a sterile cotton swab. The models for detection of tissue morphology were fixed using 4% paraformaldehyde. After 24 h of fixation, H&E staining detection was performed, photographs were taken under a microscope and observed, and pictures were collected and analyzed. Inhibition rate/down-regulation rate (%)=(negative control group−sample)/negative control group×100% GraphPad Prism was applied for plotting, and results were expressed as Mean±SD. Comparison between the groups was statistically analyzed using t-test. Statistical analysis was two-tailed. P<0.05 is considered to have a significant difference, and P<0.01 is considered to have an extremely significant difference. (2) Epidermal atrophy: Tissue morphology is physiological structure analysis of appearance of tissues after HE staining. The ability of the test substance to resist UVB can be evaluated by analyzing thickness changes of epidermis and growth of four layers of cells on the surface after use of the test substance.

collagen fiber = test: Excised skin tissues, combined UVA and UVB irradiation: collagen fiber (Masson staining); conditions: ex vivo skin, 0.1%
Method: (§1) Tissue treatment: Freshly obtained skin tissues were immersed into 75% alcohol to be cleaned for 30 s, and then cleaned in a sterile PBS buffer solution for three times. After the cleaning was finished, the skin was cut into tissue blocks of 24±2 mm^2, with the epidermis facing upwards and the dermis facing downwards, and put into culture moulds; and then the culture moulds were transferred into 6-well plates, with each well being added with 3.7 mL of the culture solution, and cultured in the CO2 incubator (37° C., 5% CO2), with the solution being changed every day.
(§2) Dosing: After the excised skin tissues were cultured for 2 days, irradiation and dosing were started with reference to test groups and corresponding treatment conditions in the table. Irradiation dosages were UVA (30 J/cm^2) and UVB (50 mJ/cm^2). The irradiation was continuously performed for 4 days. […]
Detection of collagen fiber: the skin tissues having undergone the dosing were fixed using 4% paraformaldehyde. […] Slicing result was recovered, photographed using a microscope, and analyzed using Image-Pro Plus image processing software. […]
(§3) Statistical analysis of results: GraphPad Prism was applied for plotting, and results were expressed as Mean±SD. Comparison between the groups was statistically analyzed using t-test. […]

hyaluronic acid = test: Excised skin tissues, combined UVA and UVB irradiation: hyaluronic acid (immunofluorescence); conditions: ex vivo skin, 0.1%
Method: as §1
as §2, with “days. After each time of irradiation was completed, the culture solution was replaced with a fresh culture solution, and a dosing treatment was performed. The positive control (VC+VE) was dosed below a liquid surface, and the test sample was does on a surface, with each group being in triplicate.” for “days.”
as §3

elastin = test: Excised skin tissues, combined UVA and UVB irradiation: elastin (Victoria Blue staining); conditions: ex vivo skin, 0.1%
Method: as §1
as §2, with “days. After each time of irradiation was completed, the culture solution was replaced with a fresh culture solution, and a dosing treatment was performed. The positive control (VC+VE) was dosed below a liquid surface, and the test sample was does on a surface, with each group being in triplicate.” for “days.”
as §3

type III collagen = test: Excised skin tissues, combined UVA and UVB irradiation: type III collagen (IHC); conditions: ex vivo skin, 0.1%
Method: as §1
as §2, with “days. After each time of irradiation was completed, the culture solution was replaced with a fresh culture solution, and a dosing treatment was performed. The positive control (VC+VE) was dosed below a liquid surface, and the test sample was does on a surface, with each group being in triplicate.” for “days.”
as §3

type IV collagen = test: Excised skin tissues, combined UVA and UVB irradiation: type IV collagen (IHC); conditions: ex vivo skin, 0.1%
Method: as §1
as §2, with “days. After each time of irradiation was completed, the culture solution was replaced with a fresh culture solution, and a dosing treatment was performed. The positive control (VC+VE) was dosed below a liquid surface, and the test sample was does on a surface, with each group being in triplicate.” for “days.”
as §3

type XVII collagen = test: Excised skin tissues, combined UVA and UVB irradiation: type XVII collagen (IHC); conditions: ex vivo skin, 0.1%
Method: as §1
as §2, with “days. After each time of irradiation was completed, the culture solution was replaced with a fresh culture solution, and a dosing treatment was performed. The positive control (VC+VE) was dosed below a liquid surface, and the test sample was does on a surface, with each group being in triplicate.” for “days.”
as §3

[2] = BC 0.326, Filtrate 3%, Mandelic acid 5%, Salicylic acid 2%
[3] = 30 J/cm^2 UVA + 50 mJ/cm^2 UVB, IHC

**Q.** Which “Protein Concentration Mean (exfoliated keratinocytes)” value (“Protein Concentration Mean” for short) (suckling pig skin; [2]) does the source give for `O=C(O)C(O)c1ccccc1` (centres unmarked) [Mandelic acid] here?
**A.** 0.448 mg/mL

**Q.** How did the “CPD Positive cell Rate (%)” value (CPD; EpiKutis 3D epidermal model, UVB 600 mJ/cm^2, then 24 h, PC WY14643 50 μM) turn out when `CC1=C(/C=C/C(C)=C/C=C/C(C)=C/CO)C(C)(C)CCC1` [Retinol] was run?
**A.** 58.31%

**Q.** And the “CPD Positive cell Rate (%)” value (CPD; EpiKutis 3D epidermal model, UVB 600 mJ/cm^2, then 24 h, PC WY14643 50 μM, listed as retinol)?
**A.** 58.31%

**Q.** And the “CPD fluorescence intensity, IOD Mean” value (CPD; EpiKutis 3D epidermal model, UVB 600 mJ/cm^2, then 24 h, NC 227349.69, PC WY14643 50 μM)?
**A.** 20503.43

**Q.** And the “CPD fluorescence intensity, Down-regulation Rate” value (CPD)?
**A.** 90.98%

**Q.** What about the “CPD fluorescence intensity, Down-regulation Rate” value (CPD; listed as retinol) of the same molecule?
**A.** 90.98%

**Q.** And the Sunburn cells [1]?
**A.** 0

**Q.** What about the “Sunburn cells, Inhibition Rate” value ([1]; vs NC) of the same molecule?
**A.** 100%

**Q.** And the “Collagen fiber Relative Area Mean” value (collagen fiber; 30 J/cm^2 UVA + 50 mJ/cm^2 UVB, Masson staining)?
**A.** 0.96

**Q.** And the “Collagen fiber Increase Rate” value (collagen fiber; UVA + UVB, vs negative control)?
**A.** 50.00%

**Q.** And the “Hyaluronic acid Relative IOD Mean” value (hyaluronic acid; 30 J/cm^2 UVA + 50 mJ/cm^2 UVB, IF)?
**A.** 0.69

**Q.** And the “Hyaluronic acid Increase Rate” value (hyaluronic acid; UVA + UVB, vs negative control)?
**A.** 56.82%

**Q.** What about the “Elastin Relative IOD Mean” value (elastin; 30 J/cm^2 UVA + 50 mJ/cm^2 UVB, Victoria staining) of the same molecule?
**A.** 1.19

**Q.** And the “Elastin Increase Rate” value (elastin; UVA + UVB, vs negative control)?
**A.** 260.61%

**Q.** And the “Type III collagen Relative IOD Mean” value (type III collagen; [3])?
**A.** 0.76

**Q.** What about the “Type III collagen Increase Rate” value (type III collagen; UVA + UVB, vs negative control) of the same molecule?
**A.** 28.81%

**Q.** And the “Type IV collagen Relative IOD/area Mean” value (type IV collagen; [3])?
**A.** 0.76

**Q.** And the “Type IV collagen Increase Rate” value (type IV collagen; UVA + UVB, vs negative control)?
**A.** 26.67%

**Q.** And the “Type XVII collagen Relative IOD Mean” value (type XVII collagen; [3])?
**A.** 0.69

**Q.** What about the “Type XVII collagen Increase Rate” value (type XVII collagen; UVA + UVB, vs negative control) of the same molecule?
**A.** 176.00%

**Q.** How did the Sunburn cells [1] turn out when `Cc1cccc(Nc2cc(Cl)nc(SCC(=O)O)n2)c1C` [WY14643] was run?
**A.** 3

**Q.** Which “Protein Concentration Mean” value (suckling pig skin; [2]) does the source give for `O=C(O)c1ccccc1O` [salicylic acid] here?
**A.** 0.347 mg/mL

**Q.** And the “Protein Concentration Mean” value (suckling pig skin; BC 0.326, PC 10% salicylic acid)?
**A.** 0.555 mg/mL

From patent US20250222045A1, “BIFIDOBACTERIUM LONGUM SUBSP. INFANTIS, MICROBIAL AGENT AND USE THEREOF” (GUANGZHOU JIYAN COSMETICS TECHNOLOGY CO., LTD., priority 2024, published 2025)
